As usually defined, the TGI is the concentration at which net growth stops.

Each structure is given as a SMILES string.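 Growth conditions: 96-well plates. Treatment: test compound, 48 hours, 5 concentrations. Analysis: linear interpolation between bracketing concentrations; unreached endpoints set to highest concentration. TGI is the concentration that stops growth completely.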 A value given as a limit tells only on which side of the number the result lay.

Assay in all cases: DTP human tumour cell line panel, 48 h
In test [1] the test system is T-47D breast.
Test [2] concerns OVCAR-3 ovarian.
Test [3] deals with KM12 colon.
The test system of test [4] is LOX IMVI melanoma.
The subject of test [5] is MDA-MB-435.
The subject of test [6] is IGROV1 ovarian.
For test [7], the system named is A498 renal.
In test [8] the test system is MCF7 breast.
The test system of test [9] is HT29 colon.
The test system of test [10] is SK-MEL-28 melanoma.
Test [11] deals with HCT-116 colon.
Test [12] concerns HCC-2998 colon.
The test system of test [13] is NCI-H23 lung.
For test [14], the system named is HL-60(TB) leukemia.
Test [15] has as its system HCT-15 colon.
The test system of test [16] is SK-OV-3 ovarian.
For test [17], the system named is SF-268 CNS.
Test [18] concerns A549 NSCLC.
For test [19], the system named is OVCAR-8 ovarian.
In test [20] the test system is NCI-H522 lung.

Turning to `O=C(Cn1c(C(=O)/C=C/c2ccc(Cl)cc2)nc2ccccc21)c1ccc(Cl)cc1`, the concentration for total growth inhibition (TGI) was over 100 µM in test [1]; 22.9 µM in [2]; 27.6 µM in [3]; 36.5 µM in test [4]; 37.5 µM in test [5]; 71.7 µM in [6]. Further, the TGI in test [7] was over 100 µM; in [8] it was 30.9 µM; in test [9], 42.5 µM; in [10] it was 62.6 µM; in [11], 26.2 µM; in [12], 32.4 µM. Moreover, the TGI in [13] was 77.6 µM; in test [14] it was 29.1 µM; in [15], 51.8 µM; in test [16], over 100 µM; in test [17] it was over 100 µM; in test [18], 71.5 µM.
For the compound `Cc1ccc(C(C)C)c(OCC(=O)N/N=C/c2c[nH]c3ccc(Br)cc23)c1`, the concentration for total growth inhibition (TGI) was 24.8 µM in [1]; 5.92 µM in test [2]; 6.3 µM in test [3]; 16.4 µM in test [4]; 2.93 µM in [5]; 13.1 µM in test [6]. In addition, the TGI in test [7] was determined as 15.5 µM; in [8], 11.2 µM; in [9], 4.78 µM; in test [19], 15 µM; in test [10] it was 21.8 µM; in [11], 11 µM. Besides, the total growth inhibition concentration (TGI) in test [13] came out at 14.2 µM; in [20], 8.17 µM; in [14] it was 7.42 µM; in test [15], 14.9 µM; in test [16], 12.7 µM; in test [17] it was 23.9 µM. The compound further came in with a TGI in [18] of 12.5 µM.
For the compound `O=[N+]([O-])c1cccc(-c2cn3c(n2)Cc2ccccc2C3)c1`, the TGI in test [1], in test [3], in test [4], in test [5], in test [6] and in test [7] was over 100 µM each time. In addition, the concentration for total growth inhibition (TGI) in test [8], in [9], in [19], in test [10], in [11] and in [13] was over 100 µM in each case. Besides, the TGI in test [20], in test [14], in test [15], in [16], in test [17] and in test [18] was over 100 µM throughout.
Regarding `CC1=NN(C(=O)CC(=O)NC(=O)/C=C\c2ccccc2)C(=O)C1N=Nc1ccc([N+](=O)[O-])cc1` (configuration not stated), the concentration for total growth inhibition (TGI) in [1], in test [2], in test [3], in test [4], in test [5] and in test [6] was over 100 µM each time. The TGI in test [7], in test [8], in test [9], in test [19], in test [10] and in [11] was over 100 µM throughout. For the same compound, the total growth inhibition concentration (TGI) in [12], in test [13], in [14], in test [15], in test [16] and in test [17] was over 100 µM throughout. The compound further yielded a TGI in [18] of over 100 µM.
`Cc1ccc2c(=O)c(-c3nnc(NC4CCCCC4)s3)c[nH]c2n1`: the TGI in [1], in test [2], in test [3], in test [4], in test [5] and in [6] was over 100 µM each time. The total growth inhibition concentration (TGI) in test [7], in test [8], in [9], in test [19], in test [10] and in test [11] was over 100 µM in each case. Further, the total growth inhibition concentration (TGI) in [13], in [20], in [14], in test [15], in [17] and in [18] was over 100 µM throughout.
Regarding `COc1ccc(C2Oc3c(cccc3-c3c(-c4ccc(O)cc4)oc4cc(O)cc(O)c4c3=O)C(=O)C2O)cc1O` (configuration not stated), the total growth inhibition concentration (TGI) in test [1], in [2], in [5], in test [6], in [7] and in [8] was over 100 µM in each case. The TGI in test [9], in test [19], in [10], in test [11], in test [12] and in [13] was over 100 µM each time. In addition, the TGI in test [14], in test [15], in test [16], in test [17] and in test [18] was over 100 µM throughout.
For the compound `O=c1[nH]c2ccc(Cl)cc2o1`, the TGI in test [1], in test [2], in [3], in [4], in [5] and in test [6] was over 100 µM each time. Further, the total growth inhibition concentration (TGI) in test [7], in [8], in test [9], in [19], in [11] and in test [13] was over 100 µM in each case. Moreover, the concentration for total growth inhibition (TGI) in test [20], in test [14], in [15], in test [16], in [17] and in test [18] was over 100 µM in each case.
`Cc1ccc2c(c1)C=CC1(O2)N(c2ccccc2)C(=S)OC1(C)C` (configuration not stated): the TGI was 20.7 µM in test [1]; over 100 µM in test [2]; over 100 µM in test [3]; over 100 µM in [4]; over 100 µM in test [5]; over 100 µM in test [6]. Moreover, the TGI in test [7], in [8], in test [9], in [19], in test [10] and in test [11] was over 100 µM in each case. Further, the total growth inhibition concentration (TGI) in test [12] was over 100 µM; in test [13], over 100 µM; in test [14], 31.2 µM; in [15] it was over 100 µM; in [16] it was over 100 µM; in test [17], over 100 µM. For the same compound, the TGI in test [18] is over 100 µM.
As for `O=C(Sc1n[nH]c(=O)[nH]c1=O)c1cccc2nc3ccccc3nc12`, the TGI is over 100 µM in test [1]; over 100 µM in test [2]; over 100 µM in [3]; over 100 µM in test [4]; 29 µM in test [5]; over 100 µM in test [6]. In addition, the total growth inhibition concentration (TGI) was over 100 µM in test [7]; over 100 µM in test [8]; 61.9 µM in test [9]; over 100 µM in test [19]; 90.9 µM in [10]; over 100 µM in test [11]. The TGI is over 100 µM in [12]; 26.8 µM in test [13]; over 100 µM in [14]; over 100 µM in [15]; over 100 µM in [16]; over 100 µM in test [17]. This compound returned a TGI in test [18] of 50.4 µM.
With `C1=Nc2ccc(cc2)-c2ccc(cc2)N=Cc2ccc(cc2)OCc2cccc(n2)COc2ccc1cc2`, the total growth inhibition concentration (TGI) in test [1], in [2], in test [3], in [5], in test [6] and in test [7] was over 100 µM throughout. The total growth inhibition concentration (TGI) in test [8], in test [9], in test [19], in test [10], in test [11] and in test [13] was over 100 µM each time. The TGI was over 100 µM in test [20]; over 100 µM in test [14]; over 100 µM in test [15]; over 100 µM in test [16]; 62.1 µM in [17]; over 100 µM in test [18].
With `CC1(C)OC[C@H](COCOP2(=O)Oc3ccc4ccccc4c3-c3c(ccc4ccccc34)O2)O1`, the TGI in test [1] worked out at 36.2 µM; in [2], 29.6 µM; in test [3] it was 29.4 µM; in [5], 26.5 µM; in [6], 72.2 µM; in test [7] it was 31 µM. Further, the TGI in [8] amounted to 12.2 µM; in [9], 31.3 µM; in test [19], 63.3 µM; in test [10] it was 27 µM; in test [11], 28.3 µM; in [12], 31.3 µM. Besides, the TGI in test [13] amounted to 29.6 µM; in test [14] it was 48.5 µM; in test [15], 28.6 µM; in test [16] it was 73.3 µM; in test [17], 39.1 µM; in test [18], 63.3 µM.
On to `CNC(=O)CCCNC(=O)CCCCC(=O)N(C)C`, for which the concentration for total growth inhibition (TGI) in [1], in test [2], in test [3], in test [5], in test [7] and in test [8] was over 100 µM throughout. Besides, the total growth inhibition concentration (TGI) in test [9], in test [19], in test [10], in test [11], in [13] and in [20] was over 100 µM throughout. Besides, the total growth inhibition concentration (TGI) in test [16], in test [17] and in [18] was over 100 µM throughout.
In the case of `COc1c2cc([N+](=O)[O-])cc1CN(C(=O)C(F)(F)F)CCOCCN(C(=O)C(F)(F)F)C2`, the TGI in [1], in test [2], in test [3], in test [4], in test [5] and in test [6] was over 100 µM in each case. Also, the concentration for total growth inhibition (TGI) in [7], in test [8], in test [9], in test [19], in test [10] and in test [11] was over 100 µM each time. Also, the TGI in [13], in [20], in test [14], in test [15], in test [16] and in [17] was over 100 µM in each case. In test [18], this compound showed a TGI of over 100 µM.
`CC(=O)N1C(=O)c2cc3ccccc3cc21`: the TGI in test [1] is over 100 µM; in [4], over 100 µM; in [5], over 100 µM; in [6], over 100 µM; in [7], 89.4 µM; in [8], over 100 µM. Moreover, the TGI in [19], in test [10], in test [11], in [12], in test [13] and in test [14] was over 100 µM in each case. In addition, the TGI in [15], in test [16], in test [17] and in test [18] was over 100 µM throughout.
Regarding `COC(=O)CSc1nc2[nH]c(SC)c(C(N)=O)c2c(=O)n1-c1ccccc1`, the concentration for total growth inhibition (TGI) in test [1], in test [3], in test [4], in test [5], in [6] and in [8] was over 10 µM each time. The TGI in test [9], in test [19], in test [10], in [12], in test [13] and in test [14] was over 10 µM throughout. Also, the TGI in test [15], in [16], in [17] and in test [18] was over 10 µM in each case.

Values taken from PubChem BioAssay (NCI).
